Results reported in ChEMBL document CHEMBL3352319, “Identification and pharmacological characterization of 3,6-diazabicyclo[3.1.1]heptane-3-carboxamides as novel ligands for the α4β2 and α6/α3β2β3 nicotinic acetylcholine receptors (nAChRs)” (Eur J Med Chem, 2014).

How the values were obtained:
[1] = target: T1, Neuronal acetylcholine receptor; alpha4/beta2 (Homo sapiens, UniProt P17787+P43681); experiment: Agonist activity at human alpha4beta2 nAChR low sensitivity isoform transfected in SH-EP1 cells assessed as calcium flux by FLIPR assay; assay type: cell-based
[2] = target: T1, Neuronal acetylcholine receptor; alpha4/beta2; experiment: Agonist activity at human alpha4beta2 nAChR transfected in SH-EP1 cells assessed as calcium flux by FLIPR assay; assay type: cell-based
[3] = target: T1, Neuronal acetylcholine receptor; alpha4/beta2; experiment: Agonist activity at human alpha4beta2 nAChR high sensitivity isoform transfected in SH-EP1 cells assessed as calcium flux by FLIPR assay relative to control; assay type: cell-based
[4] = target: T1, Neuronal acetylcholine receptor; alpha4/beta2; experiment: Agonist activity at human alpha4beta2 nAChR low sensitivity isoform transfected in SH-EP1 cells assessed as calcium flux by FLIPR assay relative to control; assay type: cell-based
[5] = target: Neuronal acetylcholine receptor; alpha3/alpha6/beta2/beta3 (Homo sapiens) (UniProt P17787+P32297+Q15825+Q05901); experiment: Agonist activity at human alpha6/alpha3beta2beta3 nAChR transfected in CHO cells assessed as calcium flux by FLIPR assay relative to control; assay type: cell-based
[6] = target: T2, Neuronal acetylcholine receptor; alpha3/alpha6/beta2/beta3 (Homo sapiens, UniProt P17787+P32297+Q05901+Q15825); experiment: Agonist activity at human alpha6/alpha3beta2beta3 nAChR transfected in CHO cells assessed as calcium flux by FLIPR assay; assay type: cell-based
[7] = target: T2, Neuronal acetylcholine receptor; alpha3/alpha6/beta2/beta3; experiment: Displacement of [3H]epibatidine from human alpha6/alpha3beta2beta3 nAChR transfected in CHO cells by liquid scintillation counting; assay type: cell-based
[8] = target: T1, Neuronal acetylcholine receptor; alpha4/beta2; experiment: Displacement of [3H] nicotine from human alpha4beta2 nAChR transfected in SH-EP1 cells by liquid scintillation counting; assay type: cell-based
[9] = Cmax in po dosed rat; assay type: ADME, organism-based; parameters: route oral; settings: in vivo
[10] = Oral bioavailability in rat; assay type: ADME, organism-based; settings: in vivo
[11] = Ratio of drug level in po dosed rat brain to plasma after 1 hrs by LC-MS/MS analysis; assay type: ADME, organism-based; settings: read-out: BPR
[12] = Drug uptake in po dosed rat brain after 4 hrs by LC-MS/MS analysis; assay type: ADME, organism-based; settings: read-out: Drug uptake
[13] = Drug uptake in po dosed rat brain after 0.5 hrs by LC-MS/MS analysis; assay type: ADME, organism-based; settings: read-out: Drug uptake
[14] = Half life in po dosed rat; assay type: ADME, organism-based; settings: in vivo
[15] = Drug uptake in po dosed rat plasma after 0.5 hrs by LC-MS/MS analysis; assay type: ADME, organism-based
[16] = Tmax in po dosed rat; assay type: ADME, organism-based; settings: in vivo
[17] = Drug uptake in po dosed rat plasma after 1 hrs by LC-MS/MS analysis; assay type: ADME, organism-based
[18] = Drug uptake in po dosed rat brain after 1 hrs by LC-MS/MS analysis; assay type: ADME, organism-based; settings: read-out: Drug uptake
Rattus norvegicus = species: Rattus norvegicus; experiment: Inhibition of L-dopa-induced abnormal involuntary movement in rat; assay type: functional
[19] = Drug uptake in po dosed rat plasma after 4 hrs by LC-MS/MS analysis; assay type: ADME, organism-based
[20] = Ratio of drug level in po dosed rat brain to plasma after 4 hrs by LC-MS/MS analysis; assay type: ADME, organism-based; settings: read-out: BPR
[21] = Ratio of drug level in po dosed rat brain to plasma after 0.5 hrs by LC-MS/MS analysis; assay type: ADME, organism-based; settings: read-out: BPR

T2 sequence (P17787 whole entry): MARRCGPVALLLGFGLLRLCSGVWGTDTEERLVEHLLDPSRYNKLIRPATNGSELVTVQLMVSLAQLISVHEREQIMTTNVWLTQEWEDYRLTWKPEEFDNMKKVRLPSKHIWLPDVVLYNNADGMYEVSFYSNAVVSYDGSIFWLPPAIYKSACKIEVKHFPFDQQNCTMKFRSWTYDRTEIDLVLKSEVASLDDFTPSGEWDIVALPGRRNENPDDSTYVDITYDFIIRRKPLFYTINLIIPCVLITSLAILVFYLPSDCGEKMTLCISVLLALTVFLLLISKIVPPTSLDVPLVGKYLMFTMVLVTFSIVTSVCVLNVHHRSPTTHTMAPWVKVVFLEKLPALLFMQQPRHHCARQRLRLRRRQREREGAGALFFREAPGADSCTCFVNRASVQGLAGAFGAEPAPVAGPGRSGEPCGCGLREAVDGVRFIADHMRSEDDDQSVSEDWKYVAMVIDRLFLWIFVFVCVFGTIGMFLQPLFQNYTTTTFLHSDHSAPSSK
T2 sequence (P32297 whole entry): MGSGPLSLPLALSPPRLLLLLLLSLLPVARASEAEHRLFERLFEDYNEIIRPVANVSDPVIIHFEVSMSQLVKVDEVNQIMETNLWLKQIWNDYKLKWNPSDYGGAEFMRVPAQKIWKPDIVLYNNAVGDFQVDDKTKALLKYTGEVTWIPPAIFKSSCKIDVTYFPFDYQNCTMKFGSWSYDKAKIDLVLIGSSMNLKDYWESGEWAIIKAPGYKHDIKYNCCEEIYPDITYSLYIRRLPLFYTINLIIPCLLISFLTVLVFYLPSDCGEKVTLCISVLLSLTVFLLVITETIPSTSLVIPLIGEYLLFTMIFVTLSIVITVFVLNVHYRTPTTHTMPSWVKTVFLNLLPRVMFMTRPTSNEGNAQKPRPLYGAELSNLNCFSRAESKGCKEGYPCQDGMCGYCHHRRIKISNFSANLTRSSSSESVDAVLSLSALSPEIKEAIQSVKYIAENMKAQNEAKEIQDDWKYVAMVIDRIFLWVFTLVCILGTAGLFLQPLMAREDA
T2 sequence (Q15825 whole entry): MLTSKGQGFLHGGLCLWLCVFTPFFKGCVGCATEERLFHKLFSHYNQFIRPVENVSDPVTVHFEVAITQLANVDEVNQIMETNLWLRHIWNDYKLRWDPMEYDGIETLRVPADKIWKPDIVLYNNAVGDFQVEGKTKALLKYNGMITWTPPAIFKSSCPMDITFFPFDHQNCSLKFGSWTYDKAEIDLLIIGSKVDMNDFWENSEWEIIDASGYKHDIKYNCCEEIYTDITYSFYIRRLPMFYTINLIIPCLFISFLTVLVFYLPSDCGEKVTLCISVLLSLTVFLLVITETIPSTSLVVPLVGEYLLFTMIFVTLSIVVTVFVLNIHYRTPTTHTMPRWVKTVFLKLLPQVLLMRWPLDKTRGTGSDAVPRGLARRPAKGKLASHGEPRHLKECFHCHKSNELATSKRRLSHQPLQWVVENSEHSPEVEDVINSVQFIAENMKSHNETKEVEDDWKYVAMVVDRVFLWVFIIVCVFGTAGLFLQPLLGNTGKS
T2 sequence (Q05901 whole entry): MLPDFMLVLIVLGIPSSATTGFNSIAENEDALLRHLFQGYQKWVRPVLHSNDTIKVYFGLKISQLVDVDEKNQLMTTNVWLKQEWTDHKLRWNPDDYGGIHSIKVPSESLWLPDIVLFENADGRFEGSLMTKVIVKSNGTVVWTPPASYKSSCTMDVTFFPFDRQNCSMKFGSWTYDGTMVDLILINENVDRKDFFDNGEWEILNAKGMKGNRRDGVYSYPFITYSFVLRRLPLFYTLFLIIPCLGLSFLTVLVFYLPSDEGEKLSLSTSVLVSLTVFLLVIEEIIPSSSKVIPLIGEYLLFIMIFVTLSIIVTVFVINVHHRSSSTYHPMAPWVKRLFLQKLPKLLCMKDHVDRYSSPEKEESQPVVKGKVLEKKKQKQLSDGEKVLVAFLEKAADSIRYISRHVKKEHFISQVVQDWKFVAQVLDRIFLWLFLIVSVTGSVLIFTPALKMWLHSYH
T1 sequence (P17787 whole entry, canonical isoform): as the sequence (P17787 whole entry) above
T1 sequence (P43681 whole entry, canonical isoform): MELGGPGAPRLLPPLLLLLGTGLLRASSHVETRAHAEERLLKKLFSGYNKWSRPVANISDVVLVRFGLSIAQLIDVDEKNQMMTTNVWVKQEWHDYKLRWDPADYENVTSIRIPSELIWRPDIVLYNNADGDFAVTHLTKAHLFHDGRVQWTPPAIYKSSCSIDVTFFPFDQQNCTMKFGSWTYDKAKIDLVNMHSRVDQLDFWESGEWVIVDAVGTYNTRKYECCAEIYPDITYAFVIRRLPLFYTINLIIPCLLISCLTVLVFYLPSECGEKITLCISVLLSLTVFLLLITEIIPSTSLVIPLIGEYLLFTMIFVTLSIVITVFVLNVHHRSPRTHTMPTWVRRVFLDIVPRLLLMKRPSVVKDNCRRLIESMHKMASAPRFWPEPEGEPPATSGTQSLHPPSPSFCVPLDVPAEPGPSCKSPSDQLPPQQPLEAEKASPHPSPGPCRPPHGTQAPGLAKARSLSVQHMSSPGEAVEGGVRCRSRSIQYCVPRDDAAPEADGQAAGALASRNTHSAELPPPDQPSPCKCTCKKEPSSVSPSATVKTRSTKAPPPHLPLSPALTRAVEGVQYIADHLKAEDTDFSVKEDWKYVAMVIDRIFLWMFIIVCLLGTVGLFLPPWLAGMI

Compound	EC50 [1] [nM]	EC50 [2] [nM]	Emax [3] [%]	Emax [4] [%]	Emax [5] [%]	EC50 [6] [nM]	Ki [7] [nM]	Ki [8] [nM]	further results
O=C(C1CCCC1)N1CC2CC(C1)N2	29000	11000	68	48	62	1600	2900	160	–
O=C(C1CC1)N1CC2CC(C1)N2	850	140	110	110	100	80	21	–	Cmax [9]: 200 ng/mL; bioavailability [10]: 82.6%; Kp at 1 h [11]: 0.31; concentration at 4 h [12]: 20.2 ng/g; concentration at 0.5 h [13]: 39.5 ng/g; half-life [14]: 1.58 h; concentration at 0.5 h [15]: 123 ng/mL; Tmax [16]: 1 h; concentration at 1 h [17]: 174 ng/mL; concentration at 1 h [18]: 53.7 ng/g; inhibition (INH) (Rattus norvegicus): 24%; concentration at 4 h [19]: 62.2 ng/mL; Kp at 4 h [20]: 0.32; Kp at 0.5 h [21]: 0.22
O=C(C1CC1(F)F)N1CC2CC(C1)N2 (configuration not stated)	2300	1000	100	94	110	100	75	5.9	–
O=C(CC1C=CCC1)N1CC2CC(C1)N2 (configuration not stated)	37000	14000	94	89	47	21000	2500	53	–
O=C(C1CCC1)N1CC2CC(C1)N2	11000	2900	99	100	80	370	240	16	–
C[C@H]1C[C@@H]1C(=O)N1CC2CC(C1)N2	14000	9100	85	67	64	3800	310	17	–
CC1(C)CC1C(=O)N1CC2CC(C1)N2 (configuration not stated)	5700	2200	92	96	73	540	250	3.9	–
C[C@@H]1C[C@H]1C(=O)N1CC2CC(C1)N2	2900	190	110	110	110	51	14	–	–
CC(=O)N1CC2CC(C1)N2	9700	5100	95	94	100	750	610	150	–
C[C@@H]1C[C@@H]1C(=O)N1CC2CC(C1)N2	3800	2100	97	88	87	920	92	–	–
O=C([C@H]1C[C@H]1F)N1CC2CC(C1)N2	1500	210	110	110	130	62	27	–	–
CCCC(=O)N1CC2CC(C1)N2	850	580	110	120	92	300	350	14	–
C[C@H]1C[C@H]1C(=O)N1CC2CC(C1)N2	5800	2200	93	87	60	2000	170	7	–
O=C([C@H]1C[C@@H]1F)N1CC2CC(C1)N2	2800	850	100	100	85	620	490	5.4	–
O=C(C1CC1)N1CC2CCC(C1)N2	–	–	–	–	–	–	7200	320	–
O=C([C@@H]1C[C@@H]1F)N1CC2CC(C1)N2	370	120	110	120	120	88	55	1.7	–
O=C(C1CC1)N1CC2CC1CN2 (configuration not stated)	–	–	–	–	–	–	10000	2800	–
CCC(=O)N1CC2CC(C1)N2	5900	490	110	98	120	180	190	6	–
O=C([C@@H]1C[C@H]1F)N1CC2CC(C1)N2	870	120	110	110	130	53	43	–	–
O=C(C1CC1)N1CCNCC1	–	–	–	–	–	–	26000	6000	–
O=C(C1CC=CC1)N1CC2CC(C1)N2	17000	6600	95	93	99	1900	1100	51	–
CC(C)C(=O)N1CC2CC(C1)N2	20000	19000	71	86	45	16000	580	130	–
